Source: ChEMBL document CHEMBL1201862, “PubChem BioAssay data set” (2004)
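In this assay, cells in 96-well plates receive the compound at five concentrations for 48 hours. Endpoints are linearly interpolated between the surrounding concentrations. GI50 marks 50% less growth.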 The source made the active and inactive calls. Cut-off read from the data, not from the text of the source: active = GI50 up to about 1.1 µM and inactive = higher.

Assays:
Assay in all cases: growth of human tumour cells (NCI), 48 h
[1] = tested on: 786-0
[2] = tested on: A498
[3] = tested on: A549
[4] = tested on: ACHN
[5] = tested on: BT-549
[6] = tested on: CAKI-1
[7] = tested on: CCRF-CEM
[8] = tested on: COLO 205
[9] = tested on: DU-145
[10] = tested on: EKVX
[11] = tested on: HCT-116
[12] = tested on: HCT-15
[13] = tested on: HL-60
[14] = tested on: HOP-62
[15] = tested on: HOP-92
[16] = tested on: HT-29
[17] = tested on: Hs-578T
[18] = tested on: IGROV-1
[19] = tested on: KM12
[20] = tested on: LOX IMVI
[21] = tested on: M14
[22] = tested on: MCF7
[23] = tested on: MDA-MB-231
[24] = tested on: MDA-MB-435
[25] = tested on: MDA-N
[26] = tested on: MOLT-4
[27] = tested on: Malme-3M
[28] = tested on: NCI-H226
[29] = tested on: NCI-H23
[30] = tested on: NCI-H460
[31] = tested on: NCI-H522
[32] = tested on: NCI/ADR-RES
[33] = tested on: OVCAR-3
[34] = tested on: OVCAR-4
[35] = tested on: OVCAR-5
[36] = tested on: OVCAR-8
[37] = tested on: PC-3
[38] = tested on: RPMI-8226
[39] = tested on: RXF 393
[40] = tested on: SF-268
[41] = tested on: SF-295
[42] = tested on: SF-539
[43] = tested on: SK-MEL-28
[44] = tested on: SK-MEL-2
[45] = tested on: SK-MEL-5
[46] = tested on: SK-OV-3
[47] = tested on: SN12C
[48] = tested on: SNB-19
[49] = tested on: SNB-75
[50] = tested on: SR
[51] = tested on: SW-620
[52] = tested on: T47D
[53] = tested on: TK-10
[54] = tested on: U-251
[55] = tested on: UACC-257
[56] = tested on: UACC-62
[57] = tested on: K562
[58] = tested on: UO-31

Measured: GI50

Cc1ccc(S(=O)(=O)NCc2cccc([N+](=O)[O-])c2)cc1
inactive: [1] > 100 µM | [2] > 100 µM | [3] > 100 µM | [4] > 100 µM | [5] > 100 µM | [6] > 100 µM | [7] 27.8 µM | [8] > 100 µM | [9] > 100 µM | [10] > 100 µM | [11] > 100 µM | [13] 28.8 µM | [14] > 100 µM | [15] > 100 µM | [16] > 100 µM | [17] > 100 µM | [18] > 100 µM | [19] > 100 µM | [20] > 100 µM | [21] > 100 µM | [22] > 100 µM | [23] > 100 µM | [24] > 100 µM | [25] > 100 µM | [27] > 100 µM | [28] > 100 µM | [29] > 100 µM | [30] > 100 µM | [31] 64.6 µM | [32] > 100 µM | [33] 72.8 µM | [34] > 100 µM | [35] > 100 µM | [36] > 100 µM | [37] > 100 µM | [38] > 100 µM | [39] > 100 µM | [40] > 100 µM | [41] > 100 µM | [42] > 100 µM | [43] > 100 µM | [44] > 100 µM | [45] > 100 µM | [46] > 100 µM | [47] > 100 µM | [48] > 100 µM | [49] > 100 µM | [50] 5.3 µM | [51] > 100 µM | [52] > 100 µM | [53] > 100 µM | [54] > 100 µM | [55] 75.9 µM | [56] > 100 µM
> 100 µM: [12]
active: [26] 0.136 µM

Cc1ccc([N+](=O)[O-])cc1S(=O)(=O)Nc1ccc(C2=NN(c3ccc([N+](=O)[O-])cc3[N+](=O)[O-])C(c3ccccc3O)C2)cc1 (stereo not drawn)
27 µM: [12]
inactive: [1] 39.8 µM | [3] 31.4 µM | [4] 35.1 µM | [5] 28.2 µM | [6] 33.8 µM | [7] 25 µM | [8] 32.4 µM | [9] 39.1 µM | [10] 26 µM | [11] 29 µM | [13] 27.4 µM | [14] 36.3 µM | [15] 26.6 µM | [16] 43.3 µM | [17] 42.7 µM | [18] 26.4 µM | [57] 21.8 µM | [19] 37 µM | [20] 42 µM | [21] 34.2 µM | [22] 27.9 µM | [23] 20.6 µM | [24] 39.4 µM | [25] 29.3 µM | [26] 12.7 µM | [27] 41.7 µM | [28] 36.6 µM | [29] 19.6 µM | [31] 21 µM | [32] 27.9 µM | [33] 24.9 µM | [34] 31 µM | [35] > 100 µM | [36] 38.4 µM | [37] 36.4 µM | [38] 49.1 µM | [39] 40.6 µM | [40] 35.6 µM | [41] 29.9 µM | [42] 55.5 µM | [43] 75.5 µM | [44] 20.7 µM | [45] 20 µM | [46] 57 µM | [47] 18 µM | [48] 47.1 µM | [49] 40.4 µM | [50] 27.2 µM | [51] 63.7 µM | [52] 27.6 µM | [53] 43.7 µM | [54] 37.1 µM | [55] 25.2 µM | [58] 24.5 µM

COC(=O)C1=C(O)C(C(=O)OC)[C@@]2(O)[C@@H](C(=O)OC)C(c3ccc(OC(=O)/C(=C/c4ccc(Cl)cc4)c4ccc(Cl)cc4)cc3)C[C@@H]1[C@@H]2C(=O)OC (stereo partly drawn)
18.5 µM: [12]
inactive: [1] 22 µM | [2] > 100 µM | [3] 77.4 µM | [4] 32.4 µM | [5] 95.7 µM | [6] 15.9 µM | [7] 6.3 µM | [8] 24 µM | [9] 39 µM | [10] 33.8 µM | [11] 11.3 µM | [13] 34.6 µM | [14] > 100 µM | [15] 19.5 µM | [16] 38.5 µM | [17] > 100 µM | [18] 20.2 µM | [57] 22.3 µM | [19] 37.8 µM | [20] 14.3 µM | [21] 15.6 µM | [22] 20.6 µM | [23] 19.1 µM | [24] 23.5 µM | [25] 17.5 µM | [26] 4.45 µM | [27] 55.7 µM | [28] 19.5 µM | [29] 50.1 µM | [30] 14.4 µM | [31] 36.6 µM | [32] 57.7 µM | [33] 51.1 µM | [34] 20.6 µM | [35] 30.1 µM | [36] 41 µM | [37] 24.1 µM | [39] 11.2 µM | [40] 99.3 µM | [41] 29.8 µM | [42] 12.2 µM | [43] > 100 µM | [44] 14.3 µM | [45] 26.1 µM | [46] > 100 µM | [47] 25.9 µM | [48] 61.9 µM | [49] 28.3 µM | [50] 9.06 µM | [51] 31.1 µM | [52] 18.7 µM | [53] 16.1 µM | [54] 24.4 µM | [55] 52.6 µM | [56] 7.29 µM | [58] 12.6 µM
